# “And” between values parts separate entries of the source, which are not always exact repeats. Equal values may be shown once. Read-outs that look alike come from different tables or passages of the source.
# Columns and labels:
# [1] = target: T1, HCV NS4A[1–22]* transmembrane peptide (Hepatitis C virus genotype 1a, UniProt P27958); test: Trp fluorescence quenching of peptide in PC:chol liposomes; format: binding; conditions: peptide in PC∶chol liposomes (1∶20)
# T1 construct: HCV NS4A[1–22]* transmembrane peptide […]
# Method: (§1) Measurements were recorded on a Tecan Infinite® M1000 spectrofluorimeter.
# Solubility of Arb = format: physicochemical
# E2[606–625] peptide = E2[606–625] peptide (Hepatitis C virus genotype 1a, UniProt P27958); test: Trp fluorescence quenching of fusion-related peptide in PC:chol liposomes; format: binding, HCV strain H (genotype 1a); conditions: peptide in PC∶chol liposomes (1∶20)
# Method: as §1
# E2[415–432] peptide = E2[415–432] peptide (Hepatitis C virus genotype 1a, UniProt P27958); test: as above; format: binding, HCV strain H (genotype 1a); conditions: peptide in PC∶chol liposomes (1∶20)
# Method: as §1
# [2] = Indole fluorescence quenching of tryptophan derivative in solution; format: binding; conditions: NATA in solution
# Method: as §1
# [3] = test system: Rd114pp (envelope glycoprotein of the RD114 feline oncovirus); format: cell-based; conditions: 11.3 µM arbidol; control pseudoparticles
# [4] = Indole fluorescence quenching of tryptophan derivative in micelles or liposomes; format: binding
# Method: as §1
# HCVpp [5] = test: Membrane fusion assay: lipid mixing between pseudoparticles and R18-labeled liposomes; conditions: pH 5.0
# Method: Lipid mixing between pseudoparticles and PC∶chol∶R18 liposomes was monitored by fluorescent spectroscopy, as the dequenching of R18 [18]. In brief, R18-labeled liposomes (1 µl, 12.5 µM final lipid concentration) were added to a 37°C-thermostated cuvette containing pseudoparticles in PBS pH 7.4 [viral titers: H77 (1a) 5.10e^5; W529A-HC 10e^2; Con1 (1b) 4.10e^4; JFH1 (2a) 5.10e^4; AY734983 (2b) 8.10e^4; AY734984 (3a) 3.10e^4; AY734987 (4a) 9.10e^4; AY785283 (5a) 3.10e^4; AY736194 (6a) 5.10e^3; HA 8.10e^8; Rd114 2.10e^6], and incubated 2 min. Fusion was initiated by acidification to pH 5 with HCl, and recorded on an SLM Aminco 8000 spectrofluorimeter over a 10-min time period, at excitation and emission wavelengths of 560 nm and 590 nm, respectively. Maximal R18 dequenching was measured after the addition of 0.1% Triton X-100 (final concentration) to the cuvette to lyse liposomes.
# HCVpp [6] = test: microbe, parasite or virus in culture; format: cell-based, hepatitis C virus; conditions: for inhibition at 11.3 µM: Hepatitis C virus, Huh-7, 6 h, read-out: Inhibition of HCVpp cell entry; for Effect on HCVpp cell entry: 11.3 µM Arb, 6 h, Huh-7 cells
# [7] = Free Arb in Arb∶DMPC mixture by ultrafiltration; format: physicochemical; conditions: Arb∶DMPC molar ratio 1∶4, neutral pH, ultrafiltration cutoff 5000 Da
# [8] = cited from earlier work
# [9] = Surface plasmon resonance binding to immobilized DMPC liposomes (L1 chip)
# Method: The running buffer was milliQ water. The influence of liposome concentrations on the final SPR signal was tested; we assayed lipid concentrations from 0.5 to 5 mM and measured the resulting resonance units (RU). […] We therefore chose the 2 mM concentration for our experiments. DMPC liposomes were resuspended in milliQ water and captured on sensor chip at 2 µl/min for 5 min. The flow rate was increased to 30 µl/min and the liposome surface was then washed with 10 mM NaOH for 1 min. Liposomes immobilized on the chip surface gave approx. a 5000 RU signal. […] After each binding cycle, the sensor surface was regenerated to the original matrix by injecting 50 mM NaOH/isopropanol (6∶4, v∶v). The sensor surface was then coated with a fresh liposome suspension for the next binding cycle. KD values were calculated from the equilibrium resonance signal (Req) as a function of the analyte concentration. Req values were estimated by extrapolation to infinite time using plots of resonance signal as a function of the reciprocal of time. Apparent KD were then calculated by nonlinear fitting to the expression Req = RmaxC/(KD+C), where Rmax is the maximum binding capacity of the surface and C is the analyte concentration, using the SigmaPlot software.
# [10] = target: Trp residues of model membrane-binding peptides (HCV NS4A and BVDV NS5A); test: Trp fluorescence quenching, model membrane peptides taken together; conditions: HCV NS4A and BVDV NS5A peptides in PC∶chol liposomes, both pH, summary; read-out: Apparent KD toward peptide Trp
# Method: as §1
structure (smiles),measurement,setting,value
"CCOC(=O)c1c(CSc2ccccc2)n(C)c2cc(Br)c(O)c(CN(C)C)c12.Cl [Arb, 1H-indole-3-carboxylic acid, 6-bromo-4-[(dimethylamino)-methyl]-5-hydroxy-1-methyl-2-[(phenylthio)methyl]-, ethyl ester, monohydrochloride]",Kd,[1]; pH 5.0,5.6 ± 0.3 µM
same,Kd,[1]; pH 7.4,3.3 ± 0.6 µM
same,Solubility,Solubility of Arb; ethanol,readily soluble
same,Solubility,Solubility of Arb; water,soluble in the mM range
same,Kd,E2[606–625] peptide; pH 5.0,70 ± 10 µM
same,Kd,E2[606–625] peptide; pH 7.4,13 ± 3 µM
same,Kd,E2[415–432] peptide; pH 5.0,28 ± 7 µM
same,Kd,E2[415–432] peptide; pH 7.4,~15 µM and 15 µM
same,Kd,[2]; pH 5.0,55 ± 10 µM
same,Kd,[2]; pH 7.4,64 ± 10 µM
same,Sensitivity of pseudoparticle entry to arbidol,[3],insensitive
same,Kd,"[4]; TOE associated to liposomes (1∶20), summary, read-out: KD (apparent affinity)",~10 µM
same,Kd,"[4]; TOE in PC liposomes (1∶20), pH 5.0, read-out: KD",9.2 ± 0.2 µM
same,Kd,"[4]; TOE in PC liposomes (1∶20), pH 7.4, read-out: KD",6 ± 0.5 µM
same,Kd,"[4]; TOE in PC∶chol liposomes (1∶20), pH 5.0, read-out: KD",15.6 ± 1.3 µM
same,Kd,"[4]; TOE in PC∶chol liposomes (1∶20), pH 7.4, read-out: KD",11.7 ± 1.4 µM
same,Kd,"[4]; TOE in lyso-PC micelles (1∶800), pH 5.0, read-out: KD",48 ± 4 µM
same,Kd,"[4]; TOE in lyso-PC micelles (1∶800), pH 7.4, read-out: KD",58 ± 9 µM
same,Inhibition of membrane fusion activity,"HCVpp [5]; all tested genotypes, 11.3 µM Arb",about 50%
same,IC50,"HCVpp [5]; read-out: IC50 of HCVpp fusion, lipid mixing with R18 liposomes",11.3 µM and ~10 µM
same,inhibition at 11.3 µM,HCVpp [6]; genotype 1a,40%
same,inhibition at 11.3 µM,HCVpp [6]; genotype 1b,40%
same,inhibition at 11.3 µM,HCVpp [6]; genotype 2a,~60%
same,inhibition at 11.3 µM,HCVpp [6]; genotype 2b,40%
same,inhibition at 11.3 µM,HCVpp [6]; genotype 3a,~60%
same,Effect on HCVpp cell entry,HCVpp [6]; genotype 5a,weakly affected
same,Effect on HCVpp cell entry,HCVpp [6]; genotype 6a,weakly affected
same,Free Arb,[7],< 0.2%
same,Toxicity,[8],low toxicity
same,Arb remaining bound to DMPC after dissociation,[9]; all Arb concentrations tested (0.5 to 11.3 µM),about 50%
same,Kd,"[9]; read-out: Apparent KD for DMPC, SPR, 30°C, water, Req extrapolated to infinite time, 4 separate experiments",6.8 ± 0.4 µM
same,Kd,[10],~4 µM

# From publication PMC3026800, “Mechanism of Inhibition of Enveloped Virus Membrane Fusion by the Antiviral Drug Arbidol” (PLoS ONE, 2011)
